Source: patent publication US20220046923A1, “HERBICIDAL CINNOLINIUM COMPOUNDS” (SYNGENTA CROP PROTECTION AG, priority 2018, published 2022)

Tests used:
Test in all cases: Post-emergence efficacy, glasshouse spray test
Format in all cases: in vivo
[1] = tested on: Digitaria sanguinalis (DIGSA); settings: Digitaria sanguinalis, post-emergence, 312 h; application rate 1000 g/Ha; evaluated after 13 days; read-out: Control of weed species DIGSA after post-emergence application (100=total damage to plant; 0=no damage to plant)
Method in brief: (§1)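 Seeds were sown in pots of standard soil and grown for 14 days under controlled glasshouse conditions. Seedlings were sprayed with the compound emulsified via acetone and IF50 and diluted in sodium lauryl ether sulphate (0.25% or 1%) with 1% ammonium sulphate. They were kept at 24/16 °C with 14 h light and 65% humidity and rated for damage on a 0–100 scale after 13 days.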

Eleusine indica (ELEIN) = settings: Eleusine indica, post-emergence, 312 h; application rate 1000 g/Ha; evaluated after 13 days; read-out: Control of weed species ELEIN after post-emergence application (100=total damage to plant; 0=no damage to plant)
Method in brief: as §1

Lolium perenne (LOLPE) = settings: Lolium perenne, post-emergence, 312 h; application rate 1000 g/Ha; evaluated after 13 days; read-out: Control of weed species LOLPE after post-emergence application (100=total damage to plant; 0=no damage to plant)
Method in brief: as §1

[2] = tested on: Ipomoea hederacea (IPOHE); settings: Ipomoea hederacea, post-emergence, 312 h; application rate 1000 g/Ha; evaluated after 13 days; read-out: Control of weed species IPOHE after post-emergence application (100=total damage to plant; 0=no damage to plant)
Method in brief: as §1

[3] = tested on: Euphorbia heterophylla (EPHHL); settings: Euphorbia heterophylla, post-emergence, 312 h; application rate 1000 g/Ha; evaluated after 13 days; read-out: Control of weed species EPHHL after post-emergence application (100=total damage to plant; 0=no damage to plant)
Method in brief: as §1

Setaria faberi (SETFA) = settings: Setaria faberi, post-emergence, 312 h; application rate 1000 g/Ha; evaluated after 13 days; read-out: Control of weed species SETFA after post-emergence application (100=total damage to plant; 0=no damage to plant)
Method in brief: as §1

[4] = tested on: Echinochloa crus-galli (ECHCG); settings: Echinochloa crus-galli, post-emergence, 312 h; application rate 1000 g/Ha; evaluated after 13 days; read-out: Control of weed species ECHCG after post-emergence application (100=total damage to plant; 0=no damage to plant)
Method in brief: as §1

[5] = tested on: Chenopodium album (CHEAL); settings: Chenopodium album, post-emergence, 312 h; application rate 1000 g/Ha; evaluated after 13 days; read-out: Control of weed species CHEAL after post-emergence application (100=total damage to plant; 0=no damage to plant)
Method in brief: as §1

[6] = tested on: Amaranthus palmeri (AMAPA); settings: Amaranthus palmeri, post-emergence, 312 h; application rate 1000 g/Ha; evaluated after 13 days; read-out: Control of weed species AMAPA after post-emergence application (100=total damage to plant; 0=no damage to plant)
Method in brief: as §1

Compound | pest or weed control at 1000 g/ha [1] [%] | pest or weed control at 1000 g/ha (Eleusine indica (ELEIN)) [%] | pest or weed control at 1000 g/ha (Lolium perenne (LOLPE)) [%] | pest or weed control at 1000 g/ha [2] [%] | pest or weed control at 1000 g/ha [3] [%] | pest or weed control at 1000 g/ha (Setaria faberi (SETFA)) [%] | pest or weed control at 1000 g/ha [4] [%] | pest or weed control at 1000 g/ha [5] [%] | pest or weed control at 1000 g/ha [6] [%]
COC(=O)C[n+]1ccc2cccc(C)c2n1 [Compound A58] | 0 | 10 | 0 | 10 | 20 | 0 | 10 | 30 | 0
Cc1cccc2cc[n+](CC(=O)O)nc12 [Compound A59] | 20 | 10 | 10 | 10 | 20 | 20 | 20 | 60 | 30
COC(=O)C[n+]1ccc2cc(OC)ccc2n1 [Compound A60] | 30 | 40 | 10 | 30 | 10 | 10 | 20 | 0 | 0
COC(=O)CC[n+]1ccc2ccccc2n1 [Compound A61] | 80 | 90 | 10 | 60 | 70 | 50 | 60 | 60 | 70
COC(=O)C[n+]1cc(C)c2ccccc2n1 [Compound A62] | 50 | 70 | 40 | 50 | 40 | 30 | 30 | 60 | 70
COC(=O)CC[n+]1cc(C)c2ccccc2n1 [Compound A63] | 20 | 40 | 30 | 10 | 20 | 10 | 10 | 50 | 40
Cc1c[n+](CCC(=O)O)nc2ccccc12 [Compound A64] | 50 | 50 | 10 | 20 | 70 | 30 | 40 | 70 | 70
O=C(O)CC[n+]1ccc2ccccc2n1 [Compound A65] | 90 | 90 | 40 | 60 | 90 | 60 | 70 | 80 | 80
